Test results reported in PMC4494766 (Monatshefte Fur Chemie, 2011).
Values after ≈ are worked out from the molar mass of the structure shown.

Each compound was assayed on M. tuberculosis wild-type strain sp. 210 resistant to PAS, INH, ETB and RFP (assay: Tuberculostatic activity, test-tube successive dilution in Youmans' medium). Conditions: Mycobacterium tuberculosis.
Assay type: cell-based
With `CSC(=NNC(=O)c1ccccc1Cl)SC` [Compound 2, Dimethyl 2-chlorobenzoylcarbonohydrazonodithioate] the MIC was 50 µg/mL (≈ 182 µM). With `CSC(=NNC(=O)c1ccc(Cl)cc1)SC` [Compound 3, Dimethyl 4-chlorobenzoylcarbonohydrazonodithioate] the MIC was 25 µg/mL (≈ 91 µM). In the case of `CSC(=NNC(=O)c1ccc(Cl)cc1Cl)SC` [Compound 4, Dimethyl 2,4-dichlorobenzoylcarbonohydrazonodithioate], the MIC is reported as 50 µg/mL (≈ 162 µM). Work on `CSC(=NNC(=O)c1ccc(Cl)c(Cl)c1)SC` [Compound 5, Dimethyl 3,4-dichlorobenzoylcarbonohydrazonodithioate] yielded an MIC of 12.5 µg/mL (≈ 40.4 µM). `CSC(=NNC(=O)c1ccccc1[N+](=O)[O-])SC` [Compound 6, Dimethyl 2-nitrobenzoylcarbonohydrazonodithioate] gave an MIC of 50 µg/mL (≈ 175 µM). With `CSC(=NNC(=O)c1ccccc1O)SC` [Compound 8, Dimethyl 2-hydroxybenzoylcarbonohydrazonodithioate] the MIC was 25 µg/mL (≈ 97.5 µM). `CSC(=NNC(=O)c1cccc(O)c1)SC` [Compound 9, Dimethyl 3-hydroxybenzoylcarbonohydrazonodithioate] showed an MIC of 25 µg/mL (≈ 97.5 µM). With `CSC(=NNC(=O)c1ccc(O)cc1)SC` [Compound 10, Dimethyl 4-hydroxybenzoylcarbonohydrazonodithioate] the MIC was 25 µg/mL (≈ 97.5 µM). Work on `COc1ccc(C(=O)NN=C(SC)SC)cc1` [Compound 11, Dimethyl 4-methoxybenzoylcarbonohydrazonodithioate] yielded an MIC of 25 µg/mL (≈ 92.5 µM). In the case of `COc1cc(C(=O)NN=C(SC)SC)cc(OC)c1OC` [Compound 12, Dimethyl 3,4,5-trimethoxybenzoylcarbonohydrazonodithioate], the MIC is reported as 50 µg/mL (≈ 151 µM). Work on `COc1ccc(CC(=O)NN=C(SC)SC)cc1OC` [Compound 13, Dimethyl 2-(3,4-dimethoxyphenyl)acetylcarbonohydrazonodithioate] yielded an MIC of 50 µg/mL (≈ 159 µM).
